Where “and” joins values, the source holds several entries; their conditions need not be identical. Equal values may be shown once. Inconclusive results and toxic doses are left out. Rule for the calls: active = survival T/C of 150% or more; inactive = T/C below 125% in these data.
Tested on: P388 leukemia ip, CD2F1 mice, survival T/C
Test: NCI In Vivo Anticancer Drug Screen. Data for tumor model P388 Leukemia (intraperitoneal) in CD2F1 (CDF1) mice
Settings: endpoint: median survival time, higher = longer survival
In short: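 Mice carrying the transplanted tumor received test compound or vehicle. Survival was recorded in each group, and the value is the treated-group measurement divided by that of the vehicle-treated control group.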

[1] = dose: 100.0 mg/kg/injection, schedule: Q04DX003 (ip), vehicle: Klucel (hydroxypropylcellulose) (HPC)
[2] = dose: 200.0 mg/kg/injection, schedule: Q04DX003 (ip), vehicle: Klucel (hydroxypropylcellulose) (HPC)
[3] = dose: 400.0 mg/kg/injection, schedule: Q04DX003 (ip), vehicle: Klucel (hydroxypropylcellulose) (HPC)
[4] = dose: 50.0 mg/kg/injection, schedule: Q01DX009 (ip), vehicle: saline with Tween-80
[5] = dose: 100.0 mg/kg/injection, schedule: Q01DX009 (ip), vehicle: saline with Tween-80
[6] = dose: 200.0 mg/kg/injection, schedule: Q01DX009 (ip), vehicle: saline with Tween-80
[7] = dose: 50.0 mg/kg/injection, schedule: Q01DX005 (ip), vehicle: Klucel (hydroxypropylcellulose) (HPC)
[8] = dose: 100.0 mg/kg/injection, schedule: Q01DX005 (ip), vehicle: Klucel (hydroxypropylcellulose) (HPC)
[9] = dose: 200.0 mg/kg/injection, schedule: Q01DX005 (ip), vehicle: Klucel (hydroxypropylcellulose) (HPC)
[10] = dose: 60.0 mg/kg/injection, schedule: Q01DX005 (ip), vehicle: Klucel (hydroxypropylcellulose) (HPC)
[11] = dose: 50.0 mg/kg/injection, schedule: Q01DX005 (ip), vehicle: saline with Tween-80
[12] = dose: 100.0 mg/kg/injection, schedule: Q01DX005 (ip), vehicle: saline with Tween-80
[13] = dose: 200.0 mg/kg/injection, schedule: Q01DX005 (ip), vehicle: saline with Tween-80

Measured: T/C

CCOC(=O)c1c(Nc2ccccc2O)oc2ccccc12
inactive: [1] 98 % of control | [2] 92 % of control | [3] 95 % of control

NC(=S)c1ccc(C2Nc3cccnc3N2)cc1 (configuration not stated)
inactive: [4] 93 % of control | [5] 95 % of control | [6] 90 % of control

CCN=C1C=CC(=C(c2ccc(N)cc2)c2ccc(N(CC)CC)c(C)c2)C=C1
inactive: dose: 1.56 mg/kg/injection, schedule: Q01DX005 (ip), vehicle: saline 106 % of control | dose: 3.12 mg/kg/injection, schedule: Q01DX005 (ip), vehicle: saline 112 % of control

O=C(NC(Cc1ccc(I)cc1)C(=O)O)c1ccc(Cl)cc1 (configuration not stated)
inactive: [7] 95 % of control | [8] 100 % of control | [9] 108 % of control

COC(=O)CCCNC(C)C
inactive: dose: 25.0 mg/kg/injection, schedule: Q01DX009 (ip), vehicle: water 97 % of control | dose: 50.0 mg/kg/injection, schedule: Q01DX009 (ip), vehicle: water 100 % of control | dose: 100.0 mg/kg/injection, schedule: Q01DX009 (ip), vehicle: water 98 % of control | dose: 200.0 mg/kg/injection, schedule: Q01DX009 (ip), vehicle: water 99 % of control | dose: 400.0 mg/kg/injection, schedule: Q01DX009 (ip), vehicle: water 99 % of control

COc1ccc(Br)c(C(=O)N2CCc3ccccc32)c1OS(=O)(=O)c1ccc(C)cc1
inactive: dose: 25.0 mg/kg/injection, schedule: Q01DX009 (ip), vehicle: distilled water + Tween-80 98 % of control | dose: 50.0 mg/kg/injection, schedule: Q01DX009 (ip), vehicle: distilled water + Tween-80 100 % of control | dose: 100.0 mg/kg/injection, schedule: Q01DX009 (ip), vehicle: distilled water + Tween-80 91 % of control | dose: 200.0 mg/kg/injection, schedule: Q01DX009 (ip), vehicle: distilled water + Tween-80 89 % of control | dose: 400.0 mg/kg/injection, schedule: Q01DX009 (ip), vehicle: distilled water + Tween-80 95 % of control

CCOC(=O)c1cc(=O)oc(=O)[nH]1
inactive: dose: 6.25 mg/kg/injection, schedule: Q04DX003 (ip), vehicle: Klucel (hydroxypropylcellulose) (HPC) 105 % of control | dose: 12.5 mg/kg/injection, schedule: Q04DX003 (ip), vehicle: Klucel (hydroxypropylcellulose) (HPC) 112 % of control | dose: 25.0 mg/kg/injection, schedule: Q04DX003 (ip), vehicle: Klucel (hydroxypropylcellulose) (HPC) 114 % of control | [1] 89 % of control | [2] 87 % of control

Nc1nnc(-c2ccc(Cl)c(Cl)c2)o1
inactive: [1] 100 % of control | [2] 105 % of control | [3] 115 % of control

O=C1OCCC12C(c1ccccc1)C1(CCOC1=O)C2c1ccccc1 (configuration not stated)
inactive: dose: 1.87 mg/kg/injection, schedule: Q01DX005 (ip), vehicle: Klucel (hydroxypropylcellulose) (HPC) 94 % of control | dose: 3.75 mg/kg/injection, schedule: Q01DX005 (ip), vehicle: Klucel (hydroxypropylcellulose) (HPC) 94 % of control | dose: 7.5 mg/kg/injection, schedule: Q01DX005 (ip), vehicle: Klucel (hydroxypropylcellulose) (HPC) 86 % of control | [10] 86 % of control | dose: 240.0 mg/kg/injection, schedule: Q01DX005 (ip), vehicle: Klucel (hydroxypropylcellulose) (HPC) 94 % of control

Cc1cc(Cl)c(C)cc1Cl
inactive: [4] 91 % of control | [5] 95 % of control | dose: 100.0 mg/kg/injection, schedule: Q04DX003 (ip), vehicle: saline with Tween-80 105 % of control | [6] 95 % of control | dose: 200.0 mg/kg/injection, schedule: Q04DX003 (ip), vehicle: saline with Tween-80 110 % of control | dose: 400.0 mg/kg/injection, schedule: Q04DX003 (ip), vehicle: saline with Tween-80 110 % of control

CCOC(=O)c1c(-c2ccccc2)oc2ccc(NS(=O)(=O)c3ccccc3)cc12
inactive: dose: 100.0 mg/kg/injection, schedule: Q01DX001 (ip), vehicle: saline with Tween-80 95 % of control | dose: 200.0 mg/kg/injection, schedule: Q01DX001 (ip), vehicle: saline with Tween-80 104 % of control | dose: 400.0 mg/kg/injection, schedule: Q01DX001 (ip), vehicle: saline with Tween-80 95 % of control

CN1CCc2cc3c(cc2[C@H]1[C@@H]1OC(=O)c2c1ccc1c2OCO1)OCO3
inactive: dose: 6.25 mg/kg/injection, schedule: Q01DX005 (ip), vehicle: saline with Tween-80 101 % of control | dose: 12.5 mg/kg/injection, schedule: Q01DX005 (ip), vehicle: saline with Tween-80 97 % of control

O=C1C=CC(=Nc2ccc3[nH]c4ccccc4c3c2)C=C1
inactive: [11] 101 % of control and 92 % of control and 96 % of control | [12] 104 % of control and 93 % of control and 96 % of control | [13] 108 % of control and 121 % of control and 96 % of control | dose: 400.0 mg/kg/injection, schedule: Q01DX005 (ip), vehicle: saline with Tween-80 108 % of control

Cc1nc2c([N+](=O)[O-])cc(Cl)cc2[nH]1
inactive: dose: 30.0 mg/kg/injection, schedule: Q01DX005 (ip), vehicle: Klucel (hydroxypropylcellulose) (HPC) 107 % of control | [10] 107 % of control | dose: 120.0 mg/kg/injection, schedule: Q01DX005 (ip), vehicle: Klucel (hydroxypropylcellulose) (HPC) 103 % of control

C/C=C1/C(=O)O[C@]23C=C[C@@H]4C(C(=O)OC)=CO[C@H](O[C@@H]12)[C@@H]43
inactive: dose: 1.25 mg/kg/injection, schedule: Q01DX009 (ip), vehicle: Klucel (hydroxypropylcellulose) (HPC) 96 % of control | dose: 2.5 mg/kg/injection, schedule: Q01DX009 (ip), vehicle: Klucel (hydroxypropylcellulose) (HPC) 98 % of control | dose: 5.0 mg/kg/injection, schedule: Q01DX009 (ip), vehicle: Klucel (hydroxypropylcellulose) (HPC) 102 % of control | dose: 10.0 mg/kg/injection, schedule: Q01DX009 (ip), vehicle: Klucel (hydroxypropylcellulose) (HPC) 109 % of control

N=c1ccc(=Nc2ccc(N)c3c(O)c4ccccc4c(O)c23)c2c(=O)c3ccccc3c(=O)c1=2
inactive: [11] 103 % of control | [12] 94 % of control | [13] 92 % of control

O=S(=O)(Nc1ccccc1)c1ccc(C2CC3(Cl)C(Cl)=C(Cl)C2(Cl)C3(Cl)Cl)cc1 (configuration not stated)
inactive: dose: 100.0 mg/kg/injection, schedule: Q01DX009 (ip), vehicle: saline sonified 90 % of control | dose: 200.0 mg/kg/injection, schedule: Q01DX009 (ip), vehicle: saline sonified 90 % of control | dose: 400.0 mg/kg/injection, schedule: Q01DX009 (ip), vehicle: saline sonified 90 % of control

O=C1CC(C2(c3ccccc3)SCCCS2)CO1 (configuration not stated)
inactive: dose: 100.0 mg/kg/injection, schedule: Q01DX001 (ip), vehicle: Klucel (hydroxypropylcellulose) (HPC) 99 % of control | dose: 200.0 mg/kg/injection, schedule: Q01DX001 (ip), vehicle: Klucel (hydroxypropylcellulose) (HPC) 98 % of control | dose: 400.0 mg/kg/injection, schedule: Q01DX001 (ip), vehicle: Klucel (hydroxypropylcellulose) (HPC) 100 % of control

COc1ccccc1N=c1scc(C)n1C
inactive: dose: 50.0 mg/kg/injection, schedule: Q01DX009 (ip), vehicle: Klucel (hydroxypropylcellulose) (HPC) 111 % of control | dose: 100.0 mg/kg/injection, schedule: Q01DX009 (ip), vehicle: Klucel (hydroxypropylcellulose) (HPC) 109 % of control | dose: 200.0 mg/kg/injection, schedule: Q01DX009 (ip), vehicle: Klucel (hydroxypropylcellulose) (HPC) 118 % of control

CCCCC1=C([Si](C)(C)C)C(=O)c2ccccc2C1=O
inactive: dose: 25.0 mg/kg/injection, schedule: Q01DX005 (ip), vehicle: Klucel (hydroxypropylcellulose) (HPC) 109 % of control | [7] 110 % of control and 111 % of control and 113 % of control | [8] 115 % of control and 86 % of control | [9] 110 % of control and 118 % of control
